System: KRAS patient-derived spheroids with HUVEC/MSC, viability
Experiment: Anticancer human tumor 941728-121-R-J1-PDC patient-derived lung adenocarcinoma cell line growth inhibition [KRAS2]
Conditions: for IC50: curve of first compound; for viability, T/C: stronger effect = lower value
Excerpt: Multicellular complex tumor spheroid response to RAS pathway inhibitors in combination with a targeted agents in patient-derived cell lines with oncogenic KRAS variants from multiple cancer types
A high-throughput screen of multi-cell type tumor spheroids was designed to identify active combinations of targeted small molecules and KRAS pathway inhibitors. Complex spheroids include a stromal component modeled by human endothelial cells (HUVEC) and fibroblasts modeled by human mesenchymal stem cells (MSCs). The concentration ranges selected for each drug and investigational agent were based upon clinically achievable concentrations if the clinical Cmax of the agent was known.
Compounds. The drugs and investigational agents: BI-3406 (NSC825286), BAY-293 (NSC824723), batoprotafib (TNO155; NSC825523), sotorasib (AMG 510; NSC818433), MRTX1257 (NSC819558), elimusertib (BAY 1895344; NSC800525), molibresib (GSK525762; NSC774829), temuterkib (LY3214996; NSC803410), venetoclax (NSC766270), alisertib (NSC759677), olaparib (NSC753686), talazoparib (NSC767125), erdafitinib (NSC781556), ipatasertib (NSC767898), cabozantinib (NSC761068), nintedanib (NSC756659), abemaciclib (NSC768073), docetaxel (NSC628503), trametinib (NSC758246), and sapanisertib (NSC764658) were obtained from the National Cancer Institute (NCI) Developmental Therapeutics Program Chemical Repository. The FDA-approved anticancer drug set is available from the Developmental Therapeutics Program. […] The stock solutions were prepared in dimethyl sulfoxide (DMSO, Sigma-Aldrich, St. Louis, MO, cat. D2650) at 800-fold the tested concentration and stored at -70 degrees C prior to their use. All drugs and investigational agents were tested over a range starting from a high concentration at or near the clinical Cmax and decreasing in half-log increments. If the clinical Cmax for an agent had not been determined, the highest concentration tested was 10 microM.
Cell Culture. All cells were maintained in an incubator at 37 degrees C and 5% CO2 with 95% humidity. The PDC lines were cultured according to standard operating procedures established by the NCI PDMR (https://pdmr.cancer.gov/sops/default.htm). Briefly, all PDCs were thawed and cultured in Matrigel-coated flasks prepared with a working solution of 1X Ham's F-12 nutrient mix, without supplementation (Invitrogen, Waltham, MA, cat. 11765054), 100 U/mL penicillin-streptomycin (Invitrogen, cat. 15140122), and 2.5% Matrigel (Corning Inc., Corning, NY, cat. 354248) for the first three passages. All PDCs were cultured in complete DMEM/F-12 media containing advanced DMEM/F-12 (Invitrogen, cat. 12634028), 4.9% defined fetal bovine serum, heat inactivated (HyClone Laboratories Inc., Logan, UT, cat. SH30070.03HI), 389 ng/mL hydrocortisone (Sigma-Aldrich, cat. H4001), 9.7 ng/mL human EGF recombinant protein (Invitrogen, cat. PHG0313), 23.4 microg/mL adenine (Sigma-Aldrich, cat. A2786), 97.3 U/mL penicillin-streptomycin (Invitrogen, cat. 15140122), 1.9 mM L-glutamine (Invitrogen, cat. 25030081), and 9.7 microM Y-27632 dihydrochloride (Tocris Bioscience, Bristol, United Kingdom, cat. 1254). The PDCs were cultured in complete DMEM/F12 media without 9.7 microM Y-27632 dihydrochloride for at least two passages prior to the screen. The established cell line HOP-62 was cultured in RPMI 1640 medium, HEPES (Invitrogen, cat. 22400105) with 10% defined fetal bovine serum (HyClone Laboratories Inc., cat. SH30070.03) and 2 mM L-glutamine (Invitrogen, cat. 25030081). The pooled donor HUVEC were cultured in endothelial cell growth medium 2 (PromoCell, Heidelberg, Germany, cat. C-22011) and the hMSC were cultured in mesenchymal stem cell growth medium 2 (PromoCell, cat. C-28009). For all experiments, HUVEC and hMSC were used at passages </=5, while the malignant cell lines were used at passages </=15. […]

[1] = second compound 0.1 µM, first compound 0.01 µM
[2] = second compound 0.1 µM, first compound 0.0316 µM
[3] = second compound 0.1 µM, first compound 0.1 µM
[4] = second compound 0.316 µM, first compound 0.01 µM
[5] = second compound 0.316 µM, first compound 0.0316 µM
[6] = second compound 0.316 µM, first compound 0.1 µM
[7] = second compound 1 µM, first compound 0.01 µM
[8] = second compound 1 µM, first compound 0.0316 µM
[9] = second compound 1 µM, first compound 0.1 µM
[10] = second compound 3.16 µM, first compound 0.01 µM
[11] = second compound 3.16 µM, first compound 0.0316 µM
[12] = second compound 3.16 µM, first compound 0.1 µM
[13] = second compound 10 µM, first compound 0.01 µM
[14] = second compound 10 µM, first compound 0.0316 µM
[15] = second compound 10 µM, first compound 0.1 µM
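Further: spheroids exposed to agents for seven days before readout.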

Row | Structure (SMILES) | IC50 (second compound 0.1 µM) [nM] | IC50 (second compound 0.316 µM) [nM] | IC50 (second compound 1 µM) [nM] | IC50 (second compound 3.16 µM) [nM] | IC50 (second compound 10 µM) [nM] | viability, T/C [1] [%] | viability, T/C [2] [%] | viability, T/C [3] [%] | viability, T/C [4] [%] | viability, T/C [5] [%] | viability, T/C [6] [%] | viability, T/C [7] [%] | viability, T/C [8] [%] | viability, T/C [9] [%] | viability, T/C [10] [%] | viability, T/C [11] [%] | viability, T/C [12] [%] | viability, T/C [13] [%] | viability, T/C [14] [%] | viability, T/C [15] [%] | also measured
1 | CC(=O)OC12COC1CC(O)C1(C)C(=O)C(O)C3=C(C)C(OC(=O)C(O)C(NC(=O)OC(C)(C)C)c4ccccc4)CC(O)(C(OC(=O)c4ccccc4)C21)C3(C)C (stereo not given) + C=CC(=O)N1CCN(c2nc(=O)n(-c3c(C)ccnc3C(C)C)c3nc(-c4c(O)cccc4F)c(F)cc23)C(C)C1 | < 10 | < 10 | < 10 | < 10 | < 10 | 19.7 | 17.1 | 19.8 | 18.4 | 17.4 | 17.4 | 16.6 | 19.2 | 16.4 | 16.4 | 21.9 | 20.9 | 25.9 | 24 | 29.5 | viability, T/C (second compound 0.1 µM, first compound 0.316 µM): 18.1%; viability, T/C (second compound 0.1 µM, first compound 1 µM): 21.7%; viability, T/C (second compound 0.1 µM, first compound 3.16 µM): 20.2%; viability, T/C (second compound 0.316 µM, first compound 0.316 µM): 20.2%; viability, T/C (second compound 0.316 µM, first compound 1 µM): 20.4%; viability, T/C (second compound 0.316 µM, first compound 3.16 µM): 18.3%; viability, T/C (second compound 1 µM, first compound 0.316 µM): 19.1%; viability, T/C (second compound 1 µM, first compound 1 µM): 20.6%; viability, T/C (second compound 1 µM, first compound 3.16 µM): 20.1%; viability, T/C (second compound 3.16 µM, first compound 0.316 µM): 19.5%; viability, T/C (second compound 3.16 µM, first compound 1 µM): 23.8%; viability, T/C (second compound 3.16 µM, first compound 3.16 µM): 19%; viability, T/C (second compound 10 µM, first compound 0.316 µM): 26.2%; viability, T/C (second compound 10 µM, first compound 1 µM): 28.8%; viability, T/C (second compound 10 µM, first compound 3.16 µM): 25.5%
2 | CN(C)C/C=C/C(=O)Nc1cc2c(Nc3ccc(F)c(Cl)c3)ncnc2cc1O[C@H]1CCOC1 + C=CC(=O)N1CCN(c2nc(=O)n(-c3c(C)ccnc3C(C)C)c3nc(-c4c(O)cccc4F)c(F)cc23)C(C)C1 | < 0.316 | < 0.316 | < 0.316 | < 0.316 | < 0.316 | 15.5 | 15.9 | 14.3 | 15.3 | 16.7 | 16.4 | 15.7 | 16.5 | 15.9 | 17.9 | 18.9 | 17.3 | 17.7 | 20.7 | 19 | viability, T/C (second compound 0.1 µM, first compound 0.000316 µM): 18.1%; viability, T/C (second compound 0.1 µM, first compound 0.001 µM): 17.1%; viability, T/C (second compound 0.1 µM, first compound 0.00316 µM): 16.2%; viability, T/C (second compound 0.316 µM, first compound 0.000316 µM): 17%; viability, T/C (second compound 0.316 µM, first compound 0.001 µM): 17.6%; viability, T/C (second compound 0.316 µM, first compound 0.00316 µM): 15.6%; viability, T/C (second compound 1 µM, first compound 0.000316 µM): 20.6%; viability, T/C (second compound 1 µM, first compound 0.001 µM): 19.9%; viability, T/C (second compound 1 µM, first compound 0.00316 µM): 18.1%; viability, T/C (second compound 3.16 µM, first compound 0.000316 µM): 21.5%; viability, T/C (second compound 3.16 µM, first compound 0.001 µM): 20.9%; viability, T/C (second compound 3.16 µM, first compound 0.00316 µM): 19.4%; viability, T/C (second compound 10 µM, first compound 0.000316 µM): 26.3%; viability, T/C (second compound 10 µM, first compound 0.001 µM): 22.5%; viability, T/C (second compound 10 µM, first compound 0.00316 µM): 23.6%

Source: PubChem BioAssay AID1963862 (Molecular Pharmacology Branch, DTP, NCI, 2024)
